Literature values in patent publication US9795686B2, “Biomaterials comprising hyaluronic acid binding peptides and bifunctional biopolymer molecules for hyaluronic acid retention and tissue engineering applications” (THE JOHNS HOPKINS UNIVERSITY, priority 2012, dated 2017).
pKd: −log10 of the molar value.

Details: previously observed; read-out: Kd, affinity of HABPep for HA

pKd: 5.78
Sequence: GAHWQFNALTVR [HABPep]
